Data published in patent US6506766B1 (Abbott Laboratories, priority 1998, dated 2003).

Legend:
[1] = target: T1, human glucocorticoid receptor-α [GRX] isoform (Homo sapiens, UniProt P04150); experiment: Radioligand binding with human glucocorticoid receptor cytosol ([3H]-dexamethasone competition); settings: GRX cytosol expressed in insect SF21 cells, [3H]-Dex ~0.9 nM, 4° C. overnight; Ki by Cheng-Prusoff, KL ~[…]; read-out: Ki (nM) GR
T1 construct: host or cells: insect SF21 cells (baculovirus)
T1 sequence (P04150 1-777): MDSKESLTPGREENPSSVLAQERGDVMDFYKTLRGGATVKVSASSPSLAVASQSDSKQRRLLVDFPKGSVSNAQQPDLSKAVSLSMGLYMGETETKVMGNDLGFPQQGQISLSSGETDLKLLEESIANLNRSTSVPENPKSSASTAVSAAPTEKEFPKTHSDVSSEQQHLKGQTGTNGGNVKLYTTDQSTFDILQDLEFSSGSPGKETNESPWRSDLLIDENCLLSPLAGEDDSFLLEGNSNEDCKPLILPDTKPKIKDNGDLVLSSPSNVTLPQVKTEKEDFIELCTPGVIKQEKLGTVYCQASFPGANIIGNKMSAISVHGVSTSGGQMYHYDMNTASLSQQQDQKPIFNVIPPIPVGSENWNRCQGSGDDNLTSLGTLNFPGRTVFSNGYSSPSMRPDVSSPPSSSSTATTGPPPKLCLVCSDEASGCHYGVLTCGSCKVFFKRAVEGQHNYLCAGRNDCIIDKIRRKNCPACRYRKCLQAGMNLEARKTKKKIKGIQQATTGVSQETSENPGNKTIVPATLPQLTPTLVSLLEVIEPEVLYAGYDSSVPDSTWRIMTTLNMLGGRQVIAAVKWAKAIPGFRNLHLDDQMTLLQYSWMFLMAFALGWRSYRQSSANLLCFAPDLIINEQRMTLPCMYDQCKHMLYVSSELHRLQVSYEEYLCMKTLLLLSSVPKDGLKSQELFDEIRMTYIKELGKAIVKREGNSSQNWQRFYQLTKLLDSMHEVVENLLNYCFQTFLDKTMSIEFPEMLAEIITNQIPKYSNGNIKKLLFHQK

[2] = target: T2, human progesterone receptor-A [PRA] isoform (Homo sapiens, UniProt P06401); experiment: Radioligand binding with human progesterone receptor cytosol ([3H]-progesterone competition); settings: PRA cytosol expressed in insect SF21 cells, [3H]Prog ~0.8 nM, 4° C. overnight; Ki by Cheng-Prusoff, KL ~4.5 nM; read-out: Ki (nM) PR
T2 construct: host or cells: insect SF21 cells (baculovirus)
T2 sequence (P06401 1-769 isoform P06401-2): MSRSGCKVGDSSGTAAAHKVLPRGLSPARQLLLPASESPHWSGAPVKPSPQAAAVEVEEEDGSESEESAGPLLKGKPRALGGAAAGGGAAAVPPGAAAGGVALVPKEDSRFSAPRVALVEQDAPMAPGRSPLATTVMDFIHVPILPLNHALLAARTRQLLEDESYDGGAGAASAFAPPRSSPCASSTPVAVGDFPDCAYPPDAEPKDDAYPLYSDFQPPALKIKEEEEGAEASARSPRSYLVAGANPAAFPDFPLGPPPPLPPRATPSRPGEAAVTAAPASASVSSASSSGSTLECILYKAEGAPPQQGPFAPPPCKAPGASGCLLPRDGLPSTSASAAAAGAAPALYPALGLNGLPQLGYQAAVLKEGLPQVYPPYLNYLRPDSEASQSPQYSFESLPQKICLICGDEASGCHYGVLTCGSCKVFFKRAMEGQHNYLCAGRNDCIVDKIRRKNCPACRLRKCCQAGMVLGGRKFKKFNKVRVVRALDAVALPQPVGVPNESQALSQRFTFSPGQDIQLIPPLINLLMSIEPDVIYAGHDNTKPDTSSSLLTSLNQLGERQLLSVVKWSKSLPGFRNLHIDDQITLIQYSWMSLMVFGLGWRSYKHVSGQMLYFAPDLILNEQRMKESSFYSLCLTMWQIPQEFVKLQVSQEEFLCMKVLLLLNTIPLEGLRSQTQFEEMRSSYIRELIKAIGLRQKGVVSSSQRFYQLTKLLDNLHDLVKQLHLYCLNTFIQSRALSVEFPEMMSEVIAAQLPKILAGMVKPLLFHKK

Row | SMILES | Ki [1] [nM] | Ki [2] [nM]
1 | COc1c(O)ccc2c1-c1ccc3c(c1C(Cc1ccccc1F)O2)C(C)=CC(C)(C)N3 (stereo not drawn) [Example 348, 2,5-Dihydro-9-hydroxy-10-methoxy-2,2,4-trimethyl-5-((2-fluorophenyl)methyl)-1H-[1]benzopyranol[3,4-f]quinoline] | 0.89 | 171
2 | COc1cccc2c1-c1ccc3c(c1C(=Cc1c(F)cccc1F)O2)C(C)=CC(C)(C)N3 [Example 123] | 6.1 | 9570
3 | COc1c(OC(=O)CCC(=O)N(C)C)ccc2c1-c1ccc3c(c1[C@H]([C@@H]1C=CCC1)O2)C(C)=CC(C)(C)N3 [Example 441, (−)2,5-Dihydro-9-(4-N,N-dimethylamino-4-oxo-butanoyloxy)-10-methoxy-2,2,4-trimethyl-5(S)-(3(S)-1-cyclopenten-3-yl)-1H-[1]benzopyrano[3,4-f]quinoline] | 0.42 | 328
4 | COc1c(O)ccc2c1-c1ccc3c(c1[C@H](C1CCCC1)O2)C(C)=CC(C)(C)N3 [Example 264, (−)(S)5-Cyclopentyl-2,5-dihydro-9-hydroxy-10-methoxy-2,2,4-trimethyl-1H-[1]benzopyrano[3,4-f]quinoline] | 0.51 | 307
5 | COc1cccc2c1-c1ccc3c(c1C(c1cccc(CCO)c1)O2)C(C)=CC(C)(C)N3 (stereo not drawn) [Example 314, 2,5-Dihydro-10-methoxy-5-(3-(2-hydroxyethyl)phenyl)-2,2,4-trimethyl-1H-[1]benzopyrano[3,4-f]quinoline] | 1.7 | ≥ 10000
6 | COc1cccc2c1-c1ccc3c(c1C(C1C=CCC(C)(C)C1)O2)C(C)=CC(C)(C)N3 (mixture of isomers) [Example 133] | 3.6 | 4870
7 | COc1cccc2c1-c1ccc3c(c1C(C#N)O2)C(C)=CC(C)(C)N3 (stereo not drawn) [Example 44, 2,5-Dihydro-10-methoxy-2,2,4-trimethyl-1H-[1]benzopyrano[3,4-f]quinoline-5-carbonitrile] | 190 | 19500
8 | C/C=C/CC1Oc2cccc(OC)c2-c2ccc3c(c21)C(C)=CC(C)(C)N3 (stereo not drawn) [Example 198, (E) 2,5-Dihydro-10-methoxy-5-(2-butenyl)-2,2,4-trimethyl-1H-[1]benzopyrano[3,4-f]quinoline] | 0.65 | 2130
9 | COc1c(OC(=O)CCC(=O)N(C)C)ccc2c1-c1ccc3c(c1C(C(C)C)O2)C(C)=CC(C)(C)N3 (stereo not drawn) [Example 423, 2,5-Dihydro-9-(4-N,N-dimethylamino-4-oxo-butanoyloxy)-10-methoxy-2,2,4-trimethyl-5-(1-methylethyl)-1H-[1]benzopyrano[3,4-f]quinoline] | 0.67 | 8180
10 | COc1c(O)ccc2c1-c1ccc3c(c1/C(=C/c1ccc(F)cc1)O2)C(C)=CC(C)(C)N3 [Example 372, (Z)9-Hydroxy-10-methoxy-5-((4-fluorophenyl)methylene)-2,2,4-trimethyl-1H-2,5-dihydro-[1]benzopyrano[3,4-f]quinoline] | 1.8 | 164
11 | COc1cccc2c1-c1ccc3c(c1C(=Cc1ccccc1Cl)O2)C(C)=CC(C)(C)N3 [Example 124] | 3.2 | 1610
12 | COc1cccc2c1-c1ccc3c(c1[C@H]([C@@H]1C=C(C)CCC1)O2)C(C)=CC(C)(C)N3 [Example 154] | 0.7 | ≥ 10000
13 | C=CCNc1cc(C)cc(C2Oc3cccc(OC)c3-c3ccc4c(c32)C(C)=CC(C)(C)N4)c1 (stereo not drawn) [Example 115] | 17 | ≥ 10000
14 | C=CC1(C2Oc3cccc(OC)c3-c3ccc4c(c32)C(C)=CC(C)(C)N4)CCCCC1 (stereo not drawn) [Example 139, 2,5-Dihydro-10-methoxy-5-(1-ethenyl-1-cyclohexyl)-2,2,4-trimethyl-1H-[1]benzopyrano[3,4-f]quinoline] | 235 | 4800
15 | COc1c(O)ccc2c1-c1ccc3c(c1C(c1ccc(Cl)c(C(F)(F)F)c1)O2)C(C)=CC(C)(C)N3 (stereo not drawn) [Example 258, 2,5-Dihydro-9-hydroxy-10-methoxy-2,2,4-trimethyl-5-(3-trifluoromethyl-4-chlorophenyl)-1H-[1]benzopyrano[3,4-f]quinoline] | 10.7 | 879
16 | C=CCC1Oc2c(Br)cc(Br)c(OC)c2-c2ccc3c(c21)C(C)=CC(C)(C)N3 (stereo not drawn) [Example 301, 7,9-Dibromo-10-methoxy-5-(3-propenyl)-2,2,4-trimethyl-1H-2,5-dihydro[1]benzopyrano[3,4-f]quinoline] | 16 | 113
17 | COc1cccc2c1-c1ccc3c(c1C(C1C=C(CCl)CCC1)O2)C(C)=CC(C)(C)N3 (stereo not drawn) [Example 159] | 3.8 | 1840
18 | C=CCC1Oc2c(Br)ccc(OC)c2-c2ccc3c(c21)C(C)=CC(C)(C)N3 (stereo not drawn) [Example 298, 10-Methoxy-7-bromo-5-(3-propenyl)-2,2,4-trimethyl-1H-2,5-dihydro-[1]benzopyrano[3,4-f]quinoline] | 4.1 | ≥ 10000
19 | COc1cccc2c1-c1ccc3c(c1[C@H](C1(C)CC=CCC1)O2)C(C)=CC(C)(C)N3 (stereo in doubt) [Example 152, rel (5S,3′S) 2,5-Dihydro-10-methoxy-5-(1-methyl-3-cyclohexenyl)-2,2,4-trimethyl-1H[1]benzopyrano[3,4-f]quinoline] | 1.8 | ≥ 10000
20 | CCC1Oc2ccc(O)c(Cl)c2-c2ccc3c(c21)C(C)=CC(C)(C)N3 (stereo not drawn) [Example 404, 2,5-Dihydro-9-hydroxy-10-chloro-2,2,4-trimethyl-5-ethyl-1H-[1]benzopyrano[3,4-f]quinoline] | 1.3 | 49.7
21 | COc1cccc2c1-c1ccc3c(c1C(CC=C(C)C)O2)C(C)=CC(C)(C)N3 (stereo not drawn) [Example 190, 2,5-Dihydro-10-methoxy-5-(3-methyl-2-butenyl)-2,2,4-trimethyl-1H-[1]benzopyrano[3,4f-]quinoline] | 6.25 | 1590
22 | COc1cccc2c1-c1ccc3c(c1C(c1cccc(SC)c1)O2)C(C)=CC(C)(C)N3 (stereo not drawn) [Example 103] | 5.2 | ≥ 10000
23 | COc1c(OC(=O)CCC(=O)N(C)C)ccc2c1-c1ccc3c(c1C(Cc1ccccc1)O2)C(C)=CC(C)(C)N3 (stereo not drawn) [Example 424, 2,5-Dihydro-9-(4-N,N-dimethylamino-4-oxo-butanoyloxy)-10-methoxy-5-(phenylmethyl)-2,2,4-trimethyl-1H-[1]benzopyrano[3,4-f]quinoline] | 0.84 | 1950
24 | C=Cc1cccc2c1-c1ccc3c(c1C(c1ccccc1)O2)C(C)=CC(C)(C)N3 (stereo not drawn) [Example 333, 2,5-Dihydro-10-ethenyl-5-phenyl-2,2,4-trimethyl-1H-[1]benzopyrano[3,4-f]quinoline] | 5.6 | 3670
25 | COc1cccc2c1-c1ccc3c(c1C(c1cc(C(F)(F)F)cc(C(F)(F)F)c1)O2)C(C)=CC(C)(C)N3 (stereo not drawn) [Example 31, 5-[3,5-bis(Trifluoromethyl)phenyl]-2,5-dihydro-10-methoxy-2,2,4-trimethyl-1H-[1]benzopyrano[3,4-f]quinoline] | 12.2 | ≥ 10000
26 | C=CCC1Oc2cc(F)cc(OC)c2-c2ccc3c(c21)C(C)=CC(C)(C)N3 (stereo not drawn) [Example 233, 5-(3-Propenyl)-8-fluoro-10-methoxy-2,2,4-trimethyl-2,5-dihydro-1H-[1]benzopyrano[3,4-f]quinoline] | 2.5 | 350
27 | CCCCC1Oc2ccc(O)c(Cl)c2-c2ccc3c(c21)C(C)=CC(C)(C)N3 (stereo not drawn) [Example 407, 2,5-Dihydro-9-hydroxy-10-chloro-2,2,4-trimethyl-5-butyl-1H-[1]benzopyrano[3,4-f]quinoline] | 1.8 | 16.4
